Measurements reported in patent US20150011471A1, “REGENERATION OF ISLET BETA CELLS BY HSP60 DERIVED PEPTIDES” (Yeda Research and Development Co. Ltd., priority 2012, published 2015).
Where two headings read alike, the source gives them in different places. Where no end group is shown, it is not given here.

Experiments:
advanced T1D in NOD mice = tested on: advanced T1D in NOD mice
Description: Female non-obese diabetic (NOD) mice, which spontaneously develop autoimmune diabetes that mimics human T1D, are used to test the ability of the Hsp60 peptides and peptide analogs to induce regeneration of pancreatic beta cells. The NOD model is described, for example in Elias and Cohen (Lancet 1994, 343, 704-706). Female NOD mice raised under specific pathogen free (SPF) conditions develop insulitis around 4 weeks of age. […] In addition, the actual appearance of new beta cells, detected by increased C-peptide levels is measured in the revised protocol and not just preservation of initial C-peptide levels as in the original protocol.
Groups of 7 weeks old NOD/ShiLtJ mice (Jackson Number 001976, 10 mice per group) were used. Fasting blood glucose was monitored three times per week during all the treatment period, using methods known in the art. After about 12-20 weeks, when blood glucose reaches a level of […] the mice are treated with insulin in order to keep them alive and divided randomly between the following group treatments: • 1. no treatment; • 2. […]® only, once a week; • 3.
Fasting glucose was measured Hemoglobin A1C and C-peptide levels were measured at the end of treatment, up to six months, depending on the conditions of the control and treated animals.
Histology was performed to detect and count beta cells in pancreatic islets and to observe islet infiltrates. Histology was performed by staining for insulin and detection of appearance of beta cells, as described for example in Lumelsky et al, Science 2001, 292, 1389-1394.

NOD mice = settings: subcutaneous administration; cited from earlier work

Row | Substance | Islets per whole section (advanced T1D in NOD mice; 100 μg in INTRALIPID, SC, 1 injection/week) | Islets per whole section (advanced T1D in NOD mice; 100 μg in PBS, IP, 3 injections/week) | Islets per whole section (advanced T1D in NOD mice; 200 μg in INTRALIPID, SC, 1 injection/week) | Lymphocyte infiltrates compared to control mice treated with placebo (advanced T1D in NOD mice; treated mice overall, Table 1) | Number of beta islets compared to control mice treated with placebo (advanced T1D in NOD mice; treated mice overall, Table 1) | Development of diabetes in NOD mice (NOD mice) | T-cell reactivity to beta cell antigens (NOD mice)
1 | VLGGGVALLRVIPALDSLTPANED [DiaPep277] | 3 | 2 | 1 | less lymphocyte infiltrates | increased number of beta islets | – | –
2 | p277: specific peptide of human Hsp60, one of the immunodominant epitopes in autoimmune diabetes; native cysteines at positions 6 and 11 (VLGGGCALLRCIPALDSLTPANED; UniProt P10809 437-460, looked up, fragment) | – | – | – | – | – | prevented the development of diabetes | down-regulated
